Calls of active or inactive are those of the source. The calls are words filed in the database; no cut-off is given here.
Columns and labels:
[1] = molecular target: Coagulation factor XI (Homo sapiens) (UniProt P03951); assay: Inhibition of factor 11a (unknown origin) at IC90 using S-2366 as substrate preincubated for 1 min followed by chromogenic substrate addition and measured for 2 mins in presence of AT-III; conditions: time 3.0 min
[2] = molecular target: T1, Coagulation factor XII (Homo sapiens) (UniProt P00748); assay: Inhibition of factor 12a (unknown origin) at IC50 using kallikrein chromogenic substrate preincubated for 1 min followed by chromogenic substrate addition and measured for 2 mins in presence of AT-III; conditions: time 3.0 min
T1 sequence (whole entry): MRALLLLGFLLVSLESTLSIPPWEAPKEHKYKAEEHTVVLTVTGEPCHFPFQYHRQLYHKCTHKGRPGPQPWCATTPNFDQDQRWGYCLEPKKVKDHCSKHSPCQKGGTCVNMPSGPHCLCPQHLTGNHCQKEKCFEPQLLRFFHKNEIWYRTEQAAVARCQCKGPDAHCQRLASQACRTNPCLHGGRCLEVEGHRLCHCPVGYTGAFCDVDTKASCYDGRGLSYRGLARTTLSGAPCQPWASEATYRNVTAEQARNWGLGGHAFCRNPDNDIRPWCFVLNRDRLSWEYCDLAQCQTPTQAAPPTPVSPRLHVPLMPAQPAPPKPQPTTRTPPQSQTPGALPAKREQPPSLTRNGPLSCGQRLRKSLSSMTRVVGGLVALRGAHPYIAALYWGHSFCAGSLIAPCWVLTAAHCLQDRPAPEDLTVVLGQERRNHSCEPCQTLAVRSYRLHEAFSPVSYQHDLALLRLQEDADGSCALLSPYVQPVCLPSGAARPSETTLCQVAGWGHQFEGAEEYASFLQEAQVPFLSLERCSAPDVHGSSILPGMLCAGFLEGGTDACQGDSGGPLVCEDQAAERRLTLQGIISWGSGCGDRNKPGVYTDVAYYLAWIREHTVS

[3] = system: Plasma; assay: Anticoagulation activity in human plasma assessed as drug level causing 20 times doubling of APTT by measuring activity potency of oligosaccharides multiplied by the percentage of oligosaccharides in dHG-5 preincubated for 2 mins followed by APTT reagent and measured after 3 mins by coagulometric method relative to dHG-5; format: functional; conditions: time 5 min
[4] = molecular target: T2, Coagulation factor VII (Homo sapiens) (UniProt P08709); assay: Inhibition of factor 7a (unknown origin) at IC50 using pefachrome factor VIIa as substrate preincubated for 1 min followed by chromogenic substrate addition and measured for 2 mins in presence of AT-III; conditions: time 3.0 min
T2 sequence (whole entry): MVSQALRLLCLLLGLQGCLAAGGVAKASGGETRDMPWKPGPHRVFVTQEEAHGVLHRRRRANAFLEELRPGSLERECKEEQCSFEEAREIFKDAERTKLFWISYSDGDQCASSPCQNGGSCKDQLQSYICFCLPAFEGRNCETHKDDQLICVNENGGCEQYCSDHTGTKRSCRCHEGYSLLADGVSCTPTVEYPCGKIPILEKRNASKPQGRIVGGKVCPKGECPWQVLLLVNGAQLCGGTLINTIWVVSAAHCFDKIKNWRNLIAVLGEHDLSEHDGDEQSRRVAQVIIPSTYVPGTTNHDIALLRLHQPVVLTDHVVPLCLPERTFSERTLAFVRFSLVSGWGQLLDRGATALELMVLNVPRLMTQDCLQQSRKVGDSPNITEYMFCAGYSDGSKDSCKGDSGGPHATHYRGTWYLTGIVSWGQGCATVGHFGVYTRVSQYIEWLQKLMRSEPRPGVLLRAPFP

[5] = molecular target: Prothrombin (Homo sapiens) (UniProt P00734); assay: Inhibition of factor 2a (unknown origin) at IC50 preincubated for 1 min followed by chromogenic substrate addition and measured for 2 mins in presence of AT-III; conditions: time 3.0 min
[6] = system: Plasma; assay: Anticoagulation activity in human plasma assessed as drug level causing 20 times doubling of APTT preincubated for 2 mins followed by APTT reagent and measured after 3 mins by coagulometric method relative to dHG-5; format: functional; conditions: time 5 min
[7] = molecular target: Coagulation factor XI (Homo sapiens) (UniProt P03951); assay: Inhibition of factor 11a (unknown origin) at IC50 using S-2366 as substrate preincubated for 1 min followed by chromogenic substrate addition and measured for 2 mins in presence of AT-III; conditions: time 3.0 min
[8] = system: Rattus norvegicus; assay: Antithrombotic activity in thromboplastin and stasis-induced Sprague-Dawley rat deep venous thrombosis model assessed as reduction in venous thrombosis by measuring activity potency of oligosaccharides multiplied by the percentage of oligosaccharides in dHG-5 at 1.84 mg/kg, sc administered 1 hr prior to thromboplastin addition for 20 secs followed by establishment of stasis for 20 mins relative to dHG-5; format: functional; conditions: time 80.33 min, 1.339 h
[9] = molecular target: Prothrombin (Homo sapiens) (UniProt P00734); assay: Inhibition of factor 2a (unknown origin) at IC90 preincubated for 1 min followed by chromogenic substrate addition and measured for 2 mins in presence of AT-III; conditions: time 3.0 min
[10] = molecular target: Coagulation factor X (Homo sapiens) (UniProt P00742); assay: Inhibition of factor 10a (unknown origin) at IC90 preincubated for 1 min followed by chromogenic substrate addition and measured for 2 mins in presence of AT-III relative to control; conditions: time 3.0 min
[11] = molecular target: T3, Coagulation factor IX/VIII (Homo sapiens) (UniProt P00740+P00451); assay: Inhibition of human citrated plasma iXase (factor 8a-factor 9a complex) assessed as activity potency of oligosaccharides multiplied by the percentage of oligosaccharides in dHG-5 preincubated for 2 mins followed by factor 10 addition and measured after 1 min by FXa chromogenic substrate SXa-11 based assay relative to dHG-5; format: protein-complex assay; conditions: time 3.0 min
[12] = molecular target: Coagulation factor X (Homo sapiens) (UniProt P00742); assay: Inhibition of factor 10a (unknown origin) at IC50 preincubated for 1 min followed by chromogenic substrate addition and measured for 2 mins; conditions: time 3.0 min
[13] = system: Rattus norvegicus; assay: Antithrombotic activity in thromboplastin and stasis-induced Sprague-Dawley rat deep venous thrombosis model assessed as reduction in venous thrombosis at 1.84 mg/kg, sc administered 1 hr prior to thromboplastin addition for 20 secs followed by establishment of stasis for 20 mins relative to dHG-5; format: functional; conditions: time 80.33 min, 1.339 h
[14] = molecular target: Coagulation factor X (Homo sapiens) (UniProt P00742); assay: Inhibition of factor 10a (unknown origin) at IC50 preincubated for 1 min followed by chromogenic substrate addition and measured for 2 mins in presence of AT-III; conditions: time 3.0 min
[15] = molecular target: Prothrombin (Homo sapiens) (UniProt P00734); assay: Inhibition of factor 2a (unknown origin) at IC50 preincubated for 1 min followed by chromogenic substrate addition and measured for 2 mins; conditions: time 3.0 min
[16] = molecular target: T2, Coagulation factor VII (Homo sapiens); assay: Inhibition of factor 7a (unknown origin) at IC50 using pefachrome factor VIIa as substrate preincubated for 1 min followed by chromogenic substrate addition and measured for 2 mins; conditions: time 3.0 min
[17] = molecular target: T4, Coagulation factor IX (Homo sapiens, UniProt P00740); assay: Inhibition of factor 9a (unknown origin) binding to immobilized biotinylated oHG-11 assessed as activity potency of oligosaccharides multiplied by the percentage of oligosaccharides in dHG-5 by biolayer interferometry relative to dHG-5
[18] = molecular target: T4, Coagulation factor IX; assay: Inhibition of factor 9a (unknown origin) binding to immobilized biotinylated oHG-11 by biolayer interferometry relative to dHG-5
[19] = molecular target: T3, Coagulation factor IX/VIII (Homo sapiens); assay: Inhibition of human citrated plasma iXase (factor 8a-factor 9a complex) preincubated for 2 mins followed by factor 10 addition and measured after 1 min by FXa chromogenic substrate SXa-11 based assay relative to dHG-5; format: protein-complex assay; conditions: time 3.0 min
[20] = molecular target: Coagulation factor XI (Homo sapiens) (UniProt P03951); assay: Inhibition of factor 11a (unknown origin) at IC50 using S-2366 as substrate preincubated for 1 min followed by chromogenic substrate addition and measured for 2 mins; conditions: time 3.0 min
[21] = molecular target: T1, Coagulation factor XII (Homo sapiens); assay: Inhibition of factor 12a (unknown origin) at IC50 using kallikrein chromogenic substrate preincubated for 1 min followed by chromogenic substrate addition and measured for 2 mins; conditions: time 3.0 min

Chain of Coagulation factor X (Homo sapiens) (P00742 41-179 limits assumed): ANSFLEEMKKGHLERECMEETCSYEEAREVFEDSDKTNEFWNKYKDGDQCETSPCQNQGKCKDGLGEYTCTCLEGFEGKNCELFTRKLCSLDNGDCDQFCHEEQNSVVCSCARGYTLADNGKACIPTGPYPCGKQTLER
Chain of Coagulation factor X (Homo sapiens) (P00742 235-488 limits assumed): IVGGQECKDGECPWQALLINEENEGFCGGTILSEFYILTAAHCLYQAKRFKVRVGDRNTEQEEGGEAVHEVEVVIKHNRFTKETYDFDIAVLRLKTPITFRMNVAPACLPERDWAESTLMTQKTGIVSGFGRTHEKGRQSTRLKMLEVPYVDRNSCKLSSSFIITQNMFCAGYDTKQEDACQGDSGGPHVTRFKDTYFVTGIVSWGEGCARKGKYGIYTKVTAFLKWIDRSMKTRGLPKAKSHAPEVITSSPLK
Chain of Coagulation factor XI (Homo sapiens) (P03951 19-387 limits assumed): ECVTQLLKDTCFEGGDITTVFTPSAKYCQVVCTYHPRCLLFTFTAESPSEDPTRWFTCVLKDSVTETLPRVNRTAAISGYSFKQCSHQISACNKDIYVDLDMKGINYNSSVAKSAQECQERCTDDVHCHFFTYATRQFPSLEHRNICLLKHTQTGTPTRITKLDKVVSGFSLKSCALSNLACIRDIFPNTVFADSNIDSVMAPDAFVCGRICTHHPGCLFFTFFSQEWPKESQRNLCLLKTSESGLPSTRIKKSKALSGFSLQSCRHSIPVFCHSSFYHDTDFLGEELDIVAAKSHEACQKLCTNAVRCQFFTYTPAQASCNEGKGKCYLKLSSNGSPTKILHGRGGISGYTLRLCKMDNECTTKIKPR
Chain of Coagulation factor XI (Homo sapiens) (P03951 388-625 limits assumed): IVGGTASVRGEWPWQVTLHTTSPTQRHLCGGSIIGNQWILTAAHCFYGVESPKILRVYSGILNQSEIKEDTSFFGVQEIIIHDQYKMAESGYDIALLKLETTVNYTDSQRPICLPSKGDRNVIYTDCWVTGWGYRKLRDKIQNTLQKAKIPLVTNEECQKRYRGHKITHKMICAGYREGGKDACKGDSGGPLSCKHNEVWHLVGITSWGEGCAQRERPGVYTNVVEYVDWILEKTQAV
T4 sequence (P00740 47-191 limits assumed): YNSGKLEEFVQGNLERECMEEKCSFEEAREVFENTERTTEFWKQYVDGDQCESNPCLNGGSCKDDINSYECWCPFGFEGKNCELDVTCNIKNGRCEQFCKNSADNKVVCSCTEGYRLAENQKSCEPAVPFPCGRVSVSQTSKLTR
T4 sequence (P00740 227-461 limits assumed): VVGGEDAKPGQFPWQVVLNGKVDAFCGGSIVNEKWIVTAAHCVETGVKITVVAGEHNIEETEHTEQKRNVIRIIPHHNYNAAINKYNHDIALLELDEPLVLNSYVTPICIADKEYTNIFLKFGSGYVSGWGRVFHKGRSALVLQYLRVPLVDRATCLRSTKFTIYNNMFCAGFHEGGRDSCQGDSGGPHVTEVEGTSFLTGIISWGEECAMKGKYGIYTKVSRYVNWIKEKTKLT

CC(=O)N[C@H]1[C@H](O[C@@H]([C@H](O[C@@H]2O[C@@H](C)[C@@H](OS(=O)(=O)[O-])[C@@H](OS(=O)(=O)O)[C@@H]2O)[C@@H](O)CO)[C@H](O)C(=O)[O-])O[C@H](COS(=O)(=O)[O-])[C@H](OS(=O)(=O)[O-])[C@@H]1O[C@@H]1O[C@H](C(=O)[O-])[C@@H](O[C@@H]2O[C@H](COS(=O)(=O)[O-])[C@H](OS(=O)(=O)[O-])[C@H](O[C@@H]3O[C@H](C(=O)[O-])[C@@H](O[C@@H]4O[C@H](COS(=O)(=O)[O-])[C@H](OS(=O)(=O)[O-])[C@H](O[C@@H]5O[C@H](C(=O)[O-])[C@@H](O[C@@H]6O[C@H](COS(=O)(=O)[O-])[C@H](OS(=O)(=O)[O-])[C@H](O[C@@H]7O[C@H](C(=O)[O-])[C@@H](O[C@@H]8O[C@H](COS(=O)(=O)[O-])[C@H](OS(=O)(=O)[O-])[C@H](O[C@@H]9O[C@H](C(=O)[O-])[C@@H](O[C@@H]%10O[C@H](COS(=O)(=O)[O-])[C@H](OS(=O)(=O)[O-])[C@H](O[C@@H]%11O[C@H](C(=O)[O-])[C@@H](O[C@@H]%12O[C@H](COS(=O)(=O)[O-])[C@H](OS(=O)(=O)[O-])[C@H](O[C@@H]%13OC(C(=O)O)=C[C@H](O[C@@H]%14O[C@@H](C)[C@@H](OS(=O)(=O)[O-])[C@@H](OS(=O)(=O)O)[C@@H]%14O)[C@H]%13O)[C@H]%12NC(C)=O)[C@H](O[C@@H]%12O[C@@H](C)[C@@H](OS(=O)(=O)[O-])[C@@H](OS(=O)(=O)O)[C@@H]%12O)[C@H]%11O)[C@H]%10NC(C)=O)[C@H](O[C@@H]%10O[C@@H](C)[C@@H](OS(=O)(=O)[O-])[C@@H](OS(=O)(=O)O)[C@@H]%10O)[C@H]9O)[C@H]8NC(C)=O)[C@H](O[C@@H]8O[C@@H](C)[C@@H](OS(=O)(=O)[O-])[C@@H](OS(=O)(=O)O)[C@@H]8O)[C@H]7O)[C@H]6NC(C)=O)[C@H](O[C@@H]6O[C@@H](C)[C@@H](OS(=O)(=O)[O-])[C@@H](OS(=O)(=O)O)[C@@H]6O)[C@H]5O)[C@H]4NC(C)=O)[C@H](O[C@@H]4O[C@@H](C)[C@@H](OS(=O)(=O)[O-])[C@@H](OS(=O)(=O)O)[C@@H]4O)[C@H]3O)[C@H]2NC(C)=O)[C@H](O[C@@H]2O[C@@H](C)[C@@H](OS(=O)(=O)[O-])[C@@H](OS(=O)(=O)O)[C@@H]2O)[C@H]1O.[Na+].[Na+].[Na+].[Na+].[Na+].[Na+].[Na+].[Na+].[Na+].[Na+].[Na+].[Na+].[Na+].[Na+].[Na+].[Na+].[Na+].[Na+].[Na+].[Na+].[Na+].[Na+].[Na+].[Na+].[Na+].[Na+].[Na+].[Na+].[Na+]
inhibition [1]: Active | inhibition [2]: inactive | Ratio [3]: 15.39 U | inhibition [4]: inactive | inhibition [5]: inactive | Ratio [6]: 232.47 U | inhibition [7]: inactive | Ratio [8]: 16.12 U | inhibition [9]: Active | inhibition [10]: inactive | Ratio [11]: 25.4 U | inhibition [12]: inactive | Ratio [13]: 244.26 U | inhibition [14]: inactive | inhibition [15]: inactive | inhibition (active/not active) [16]: inactive | Ratio [17]: 11.7 U | Ratio [18]: 177 U | Ratio [19]: 384 U | inhibition [20]: inactive | inhibition [21]: inactive

Reference: ChEMBL document CHEMBL4765450, “The components and activities analysis of a novel anticoagulant candidate dHG-5” (Eur J Med Chem, 2020)
